Series [1] is described as follows: CC50 assay (CellTiter-Glo) in Huh-7 HCV replicon cells. Format: cell-based, human. Particulars: human, 3 days incubation, CellTiter-Glo readout. In outline:
(§1)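 Cytotoxicity (CC50) measured by CellTiter-Glo and antiviral activity (EC50) by luciferase signal from lysed cells, both by luminescence. Replicon-bearing Huh-7 cells, 6000 per well, incubated 3 days at 37 °C with threefold-diluted compound (0.5% DMSO for DMSO-dissolved compounds).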

Series [2] deals with HCV replicon in human hepatoma Huh-7 cell line. As to the kind of experiment: Anti-HCV replicon assay (EC50, luciferase). Format: cell-based. Particulars: Hepatitis C virus, Huh-7, 72 h. The method in brief:
as §1

What is called CC50 is the concentration giving 50% cytotoxicity. High values mean lower toxicity to the cells, low ones greater toxicity to the cells. In general, EC50 refers to the concentration at which the effect is half-maximal. The low end stands for an effect from little substance, the high end for a need for much substance.

Molecules are shown by their SMILES.

For `CCOc1nc(NCc2ccc(F)cc2)nc2ccc(-c3cccc(NS(=O)(=O)N(C)C)c3)nc12` [Example 84, N′-{3-[4-Ethoxy-2-(4-fluoro-benzylamino)-pyrido[3,2-d]pyrimidin-6-yl]-phenyl}-N.N-dimethyl methanesulfonyl urea], the half-maximal cytotoxic concentration (CC50) at 3 days in series [1] was < 5 µM. The 50% effective concentration (EC50) in series [2] is < 0.1 µM.

In turn, `CCOc1nc(NCc2ccc(F)cc2)nc2ccc(-c3cccc(S(N)(=O)=O)c3)nc12` [Example 85, 3-[4-Ethoxy-2-(4-fluoro-benzylamino)-pyrido[3,2-d]pyrimidin-6-yl]-benzenesulfonamide] gave a CC50 at 3 days in series [1] of 5 to 25 µM. The EC50 in series [2] was < 0.1 µM.

Turning to `CCOc1nc(NCc2ccc(F)cc2)nc2ccc(-c3ccc(N4CCC(O)C4=O)cc3)nc12` (centres unmarked) [Example 86, 1-{4-[4-Ethoxy-2-(4-fluoro-benzylamino)-pyrido[3,2-d]pyrimidin-6-yl]-phenyl}-3-hydroxy-pyrrolidin-2-one], in series [1], the CC50 at 3 days is < 5 µM. Further, the EC50 in series [2] was < 0.1 µM.

With `CCOc1nc(NCc2ccc(F)cc2)nc2ccc(-c3ccc(F)nc3)nc12` [Example 87, [4-Ethoxy-6-(6-fluoro-pyridin-3-yl)-pyrido[3,2-d]pyrimidin-2-yl]-(4-fluoro-benzyl)-amine], the CC50 at 3 days in series [1] was < 5 µM. In addition, the EC50 in series [2] was < 0.1 µM.

As for `CCOc1nc(NCc2ccc(F)cc2)nc2ccc(-c3ccc(NC(=O)[C@@H]4C[C@@H](O)CN4)cc3)nc12` [Example 88, 4-Hydroxy-pyrrolidine-2-carboxylic acid {4-[4-ethoxy-2-(4-fluoro-benzylamino)-pyrido[3,2-d]pyrimidin-6-yl]-phenyl}-amide], the CC50 at 3 days in series [1] lay within 5 to 25 µM. For the same compound, in series [2], the EC50 is < 0.1 µM.

Regarding `CCOc1nc(NCc2ccc(F)cc2)nc2ccc(-c3ccc(NC(=O)[C@@H]4CCCN4)cc3)nc12` [Example 89, Pyrrolidine-2-carboxylic acid {4-[4-ethoxy-2-(4-fluoro-benzylamino)-pyrido[3,2-d]pyrimidin-6-yl]-phenyl}-amide], the CC50 at 3 days in series [1] was < 5 µM. Moreover, the EC50 in series [2] was < 0.1 µM.

As for `CCOc1nc(NCc2ccc(F)cc2)nc2ccc(-c3ccc(NC(=O)[C@H]4CCNC4)c(F)c3)nc12` [Example 90, Pyrrolidine-3-carboxylic acid {4-[4-ethoxy-2-(4-fluoro-benzylamino)-pyrido[3,2-d]pyrimidin-6-yl]-2-fluoro-phenyl}-amide], in series [1], the cytotoxic concentration (CC50) at 3 days is < 5 µM. In addition, the EC50 in series [2] is < 0.1 µM.

As for `CCOc1nc(NCc2ccc(F)cc2)nc2ccc(-c3ccc(NC(=O)[C@H]4CCNC4)cc3)nc12` [Example 91, Pyrrolidine-3-carboxylic acid {4-[4-ethoxy-2-(4-fluoro-benzylamino)-pyrido[3,2-d]pyrimidin-6-yl]-phenyl}-amide], in series [1], the 50% cytotoxic concentration (CC50) at 3 days was < 5 µM. In addition, in series [2], the EC50 was < 0.1 µM.

As to `CCOc1nc(NCc2ccc(F)cc2)nc2ccc(-c3ccc(NC(=O)OCCN4CCCC4)cc3)nc12` [Example 92, {4-[4-Ethoxy-2-(4-fluoro-benzylamino)-pyrido[3,2-d]pyrimidin-6-yl]-phenyl}-carbamic acid 2-pyrrolidin-1-yl-ethyl ester], the half-maximal cytotoxic concentration (CC50) at 3 days in series [1] is < 5 µM. Also, the half-maximal effective concentration (EC50) in series [2] is < 0.1 µM.

For the compound `CCOc1nc(NCc2ccc(F)cc2)nc2ccc(-c3ccc(NC(=O)NCCN4CCCC4)cc3)nc12` [Example 93, 1-{4-[4-Ethoxy-2-(4-fluoro-benzylamino)-pyrido[3,2-d]pyrimidin-6-yl]-phenyl}-3-(2-pyrrolidin-1-yl-ethyl)-urea], the 50% cytotoxic concentration (CC50) at 3 days in series [1] was < 5 µM. Also, the EC50 in series [2] is < 0.1 µM.

In series [1], `CCOc1nc(NCc2ccc(F)cc2)nc2ccc(-c3ccc(C(=O)NC(C)(C)CO)cc3)nc12` [Example 94, 4-[4-Ethoxy-2-(4-fluoro-benzylamino)-pyrido[3,2-d]pyrimidin-6-yl]-N-(2-hydroxy-1,1-dimethyl-ethyl)-benzamide] returned a CC50 at 3 days of 5 to 25 µM. Moreover, the EC50 in series [2] is < 0.1 µM.

With `CCOc1nc(NCc2ccc(F)cc2)nc2ccc(-c3ccc(C(=O)NC(C)(C)CN4CCCC4)cc3)nc12` [Example 95, N-(1,1-Dimethyl-2-pyrrolidin-1-yl-ethyl)-4-[4-ethoxy-2-(4-fluoro-benzylamino)-pyrido[3,2-d]pyrimidin-6-yl]-benzamide], in series [1], the CC50 at 3 days was < 5 µM. Moreover, in series [2], the EC50 is < 0.1 µM.

Turning to `CCOc1nc(NC2(c3ccc(F)cc3)CC2)nc2ccc(-c3ccc(C(=O)NC(C)(C)CN4CCCC4)cc3)nc12` [Example 96, N-(1,1-Dimethyl-2-pyrrolidin-1-yl-ethyl)-4-{4-ethoxy-2-[1-(4-fluoro-phenyl)-cyclopropylamino]-pyrido[3,2-d]pyrimidin-6-yl}-benzamide], the cytotoxic concentration (CC50) at 3 days in series [1] was < 5 µM. In series [2], the EC50 is < 0.1 µM.

In series [1], `CCOc1nc(NCc2ccc(F)cc2)nc2ccc(-c3ccc(CO)o3)nc12` [Example 97, {5-[4-Ethoxy-2-(4-fluoro-benzylamino)-pyrido[3,2-d]pyrimidin-6-yl]-furan-2-yl}-methanol] registered a CC50 at 3 days of 5 to 25 µM. Besides, in series [2], the concentration giving a half-maximal response (EC50) is < 0.1 µM.

On to `CCOc1nc(NCc2ccc(F)cc2)nc2ccc(-c3ccc(C(=O)NC4(C#N)CC4)cc3)nc12` [Example 98, N-(1-Cyano-cyclopropyl)-4-[4-ethoxy-2-(4-fluoro-benzylamino)-pyrido[3,2-d]pyrimidin-6-yl]-benzamide], for which the CC50 at 3 days in series [1] was > 25 µM. For the same compound, the EC50 in series [2] is < 0.1 µM.

With `CCOc1nc(NCc2ccc(F)cc2)nc2ccc(-c3ccc(NC(=O)C4(N)CC4)cc3)nc12` [Example 99, 1-Amino-cyclopropanecarboxylic acid {4-[4-ethoxy-2-(4-fluoro-benzylamino)-pyrido[3,2-d]pyrimidin-6-yl]-phenyl}-amide], the cytotoxic concentration (CC50) at 3 days in series [1] was < 5 µM. Moreover, the half-maximal effective concentration (EC50) in series [2] was < 0.1 µM.

On to `CCOc1nc(NCc2ccc(F)cc2)nc2ccc(-c3cnc(N)s3)nc12` [Example 100, [6-(2-Amino-thiazol-5-yl)-4-ethoxy-pyrido[3,2-d]pyrimidin-2-yl]-(4-fluoro-benzyl)-amine], for which, in series [1], the CC50 at 3 days was < 5 µM. For the same compound, the EC50 in series [2] is < 0.1 µM.

The compound `CCOc1nc(NCc2ccc(F)cc2)nc2ccc(-c3ccc(NC(=O)C4(O)CC4)cc3)nc12` [Example 101, 1-Hydroxy-cyclopropanecarboxylic acid {4-[4-ethoxy-2-(4-fluoro-benzylamino)-pyrido[3,2-d]pyrimidin-6-yl]-phenyl}-amide] had a 50% cytotoxic concentration (CC50) at 3 days in series [1] of 5 to 25 µM. For the same compound, the EC50 in series [2] is < 0.1 µM.

Turning to `CCOc1nc(NCc2ccc(F)cc2)nc2ccc(-c3cccc(N(CCO)S(C)(=O)=O)c3)nc12` [Example 102, N-{3-[4-Ethoxy-2-(4-fluoro-benzylamino)-pyrido[3,2-d]pyrimidin-6-yl]-phenyl}-N-(2-hydroxy-ethyl)-methanesulfonamide], the 50% cytotoxic concentration (CC50) at 3 days in series [1] was in the range of 5 to 25 µM. For the same compound, in series [2], the 50% effective concentration (EC50) was < 0.1 µM.

As to `CCOc1nc(NCc2ccc(F)cc2)nc2ccc(-c3ccc(C(=O)NC(C)(C)CN4CCOCC4)cc3)nc12` [Example 103, N-(1,1-Dimethyl-2-morpholin-4-yl-ethyl)-4-[4-ethoxy-2-(4-fluoro-benzylamino)-pyrido[3,2-d]pyrimidin-6-yl]-benzamide], the half-maximal cytotoxic concentration (CC50) at 3 days in series [1] is < 5 µM. Besides, the EC50 in series [2] was < 0.1 µM.

In the case of `CCOc1nc(NCc2ccc(F)cc2)nc2ccc(-c3ccc(N4CCCC4=O)cc3)nc12` [Example 104, 1-{4-[4-Ethoxy-2-(4-fluoro-benzylamino)-pyrido[3,2-d]pyrimidin-6-yl]-phenyl}-pyrrolidin-2-one], the CC50 at 3 days in series [1] fell in the range of 5 to 25 µM. For the same compound, the EC50 in series [2] is < 0.1 µM.

As for `CCOc1nc(NCc2ccc(F)cc2)nc2ccc(-c3ccc(NC(=O)C(C)(C)N)cc3)nc12` [Example 105, 2-Amino-N-{4-[4-ethoxy-2-(4-fluoro-benzylamino)-pyrido[3,2-d]pyrimidin-6-yl]-phenyl}-2-methyl-propionamide], the CC50 at 3 days in series [1] was < 5 µM. Also, the EC50 in series [2] is < 0.1 µM.

For the compound `CCOc1nc(NCc2ccc(F)cc2F)nc2ccc(-c3ccc(C(=O)NC4CC4)cc3)nc12` [Example 107, N-Cyclopropyl-4-[2-(2,4-difluoro-benzylamino)-4-ethoxy-pyrido[3,2-d]pyrimidin-6-yl]-benzamide], the CC50 at 3 days in series [1] fell in the range of 5 to 25 µM. Also, the EC50 in series [2] was < 0.1 µM.

The compound `CCOc1nc(NCc2ccc(F)cc2F)nc2ccc(-c3ccc(F)cc3)nc12` [Example 108, (2,4-Difluoro-benzyl)-{4-ethoxy-6-(4-fluoro-phenyl)-pyrido[3,2-d]pyrimidin-2-yl]-amine] had a cytotoxic concentration (CC50) at 3 days in series [1] of 5 to 25 µM. Also, the EC50 in series [2] was < 0.1 µM.

On to `CCOc1nc(NCc2ccc(S(N)(=O)=O)cc2)nc2ccc(-c3ccc(F)cc3)nc12` [Example 109, 4-{[4-ethoxy-6-(4-fluoro-phenyl)-pyrido[3,2-d]pyrimidin-2-ylamino]-methyl}-benzenesulfonamide], for which the 50% cytotoxic concentration (CC50) at 3 days in series [1] was 5 to 25 µM. Further, in series [2], the EC50 is < 0.1 µM.

With `NS(=O)(=O)c1ccc(CNc2nc(OC3CCCC3)c3nc(-c4ccc(F)cc4)ccc3n2)cc1` [Example 110, 4-{[4-Cyclopentyloxy-6-(4-fluoro-phenyl)-pyrido[3,2-d]pyrimidin-2-ylamino]-methyl}-benzenesulfonamide], the CC50 at 3 days in series [1] fell in the range of 5 to 25 µM. The EC50 in series [2] was < 0.1 µM.

The compound `NS(=O)(=O)c1ccc(CNc2nc(OC3CCC3)c3nc(-c4ccc(F)cc4)ccc3n2)cc1` [Example 111, 4-{[4-Cyclobutoxy-6-(4-fluoro-phenyl)-pyrido[3,2-d]pyrimidin-2-ylamino]-methyl}-benzenesulfonamide] showed a 50% cytotoxic concentration (CC50) at 3 days in series [1] of 5 to 25 µM. Further, the EC50 in series [2] was < 0.1 µM.

Regarding `CCCc1nc(NCc2ccc(S(N)(=O)=O)cc2)nc2ccc(-c3ccc(F)cc3)nc12` [Example 112, 4-{[6-(4-Fluoro-phenyl)-4-propyl-pyrido[3,2-d]pyrimidin-2-ylamino]-methyl}-benzenesulfonamide], in series [1], the CC50 at 3 days was < 5 µM. Also, in series [2], the EC50 was < 0.1 µM.
